Experimental data taken from patent US8318737B2, “Compounds and compositions for treating cancer” (Canthera Therapeutics Inc., priority 2009, dated 2012).
≈ marks a conversion by molar mass, not a printed value. Counter-ions that a name gives are not always drawn.

How the values were obtained:
[1] = precipitation of DMSO solution diluted 1:10 in phosphate buffered saline or water; assay type: physicochemical
Procedure: The compounds of the present invention may be produced using piperlongumine as a starting material yet offer numerous advantages over piperlongumine. […] The compounds of the instant invention are highly soluble in water at concentration of at least 25 mg/mL facilitating pharmaceutical preparation and delivery. Many chemotherapeutic agents transiently increase ROS levels in both cancer cells and normal cells.

[2] = solubility in water; assay type: physicochemical

Structure (SMILES)	concentration in DMSO that precipitated out when diluted 1:10 [1]	solubility in water [2] [mg/mL]	solubility [2] [mg/mL]
COc1cc(/C=C/C(=O)N2CCC=CC2=O)cc(OC)c1OC [piperlongumine, Piperlongumine]	more than 0.25 mg/ml	0.1 (≈ 315 µM)	
COc1cc(/C=C/C(=O)N2CCC=CC2=O)cc(OC)c1OCCN1CCOCC1 [tartrate salt of compound one]			100
